These are literature values, as cited in publication PMC6698139 (Bioorganic & medicinal chemistry, 2019).

The subject of this series is S1PR2. To be noted: [33P]S1P competitive binding assay.

SMILES strings stand for the structures.

In the case of `Cc1cc(C(=O)Cn2cc(C#N)ccc2=O)c(C)n1Cc1ccccc1` [CYM-5520], the “competition with S1P” value is reported as “not competitive”.
